Measurements published in patent US20030078272A1, “Methods of use of fluoroquinolone compounds against ciprofloxacin-resistant and ciprofloxacin-sensitive pathogenic bacteria” (SmithKline Beecham Corporation, priority 1999, published 2003).
Converted amounts (≈) assume the structure as drawn. Read-outs that look alike come from different tables or passages of the source.

Key:
Assay type in all cases: cell-based, Streptococcus pneumoniae
pneumococci [1] = experiment: Agar dilution MICs; conditions: for MIC50 / MIC90: Streptococcus pneumoniae
Description: (§1) Cultures were maintained at −70° C. in double-strength skim milk (Difco Laboratories, Detroit, Mich.). Gemifloxacin susceptibility powder, disks and E-tests (AB Biodisk, Solna, Sweden) were obtained from SmithKline Beecham Laboratories, Collegeville, Pa., USA.
(§2) These were performed (Jacobs, et al., Clin. Infect. Dis. 15:119-127, 1992 and Clark, et al., J. Clin. Microbiol. 36:3579-3584, 1998) on Mueller-Hinton agar supplemented with 5% sheep blood, incorporating compounds at concentrations from 0.002-8 μg/ml in doubling dilutions. Inocula were prepared by suspending growth from overnight cultures in Mueller-Hinton broth to a turbidity of a 0.5 McFarland standard. Final inocula contained 10^4 organisms/spot. Plates were inoculated with a Steers replicator with 3 mm inoculating pins, and incubated overnight at 35° C. in ambient air. The lowest concentration of antibiotic showing no growth was read as the MIC. Quality control strains—Staphylococcus aureus […] and Streptococcus pneumoniae ATCC 49619—were included in each run.

pneumococci [2] = experiment: Microdilution MICs (NCCLS); conditions: microdilution (air), 200 strains
Description: (§3) Cultures were maintained at −70° C. in double-strength skim milk (Difco Laboratories, Detroit, Mich.). Gemifloxacin susceptibility powder, disks and E-tests (AB Biodisk, Solna, Sweden) were obtained from SmithKline Beecham Laboratories, Collegeville, Pa., USA. These were determined by the method recommended by the NCCLS, (Methods for Dilution Antimicrobial Susceptibility Tests for Bacteria that Grow Aerobically, 4th Edition, NCCLS, Villanova, Pa., 1997) using cation-adjusted Mueller-Hinton broth (Difco Laboratories) supplemented with 5% lysed defibrinated horse blood. Trays were prepared in-house. Suspensions with a turbidity equivalent to that of a 0.5 McFarland standard were prepared by suspending growth from blood agar plates in 2 ml Mueller-Hinton broth. Suspensions were further diluted 1:10 to obtain a final inoculum (10 μL) containing 5×10^5 CFU/mL. Trays were incubated 20-24 hours in ambient air at 35° C. Standard quality control strains (as above) were included in each run.

pneumococci [3] = experiment: E-test MICs; conditions: 200 strains
Description: (§4) Cultures were maintained at −70° C. in double-strength skim milk (Difco Laboratories, Detroit, Mich.). Gemifloxacin susceptibility powder, disks and E-tests (AB Biodisk, Solna, Sweden) were obtained from SmithKline Beecham Laboratories, Collegeville, Pa., USA. Standard methodology was used (Clark, et al., J. Clin. Microbiol. 36:3579-3584, 1998). Mueller-Hinton plates supplemented with 5% sheep blood (BBL Microbiology Systems, Cockeysville, Md., USA) were inoculated with a 0.5 McFarland suspension harvested from plates, and E-test strips (AB Biodisk, Solna, Sweden) placed on each. After overnight incubation at 35° C., the MIC was read as the intersect where the ellipse of growth inhibition intersects the strip. E-test MICs were performed both in air and in CO2. E-test MICs were rounded up to the next highest doubling dilution.

pneumococci [4] = experiment: Disk diffusion, 5 μg gemifloxacin disks; conditions: for zone of inhibition at 5 µg/disc: Streptococcus pneumoniae, 5 μg disk, read-out: zone diameter
Description: as §1
This was by standard NCCLS methodology (Performance Standards for Antimicrobial Disk Susceptibility Tests, 6th Edition, NCCLS, Villanova, Pa., 1997) using 5 μg gemifloxacin disks (BBL) and Mueller-Hinton plates supplemented with 5% sheep blood (BBL), inoculated with a 0.5 McFarland suspension. After overnight incubation in both air and 5% CO2 at 35° C., zone diameters were measured with calipers.

pneumococci [5] = experiment: MIC testing, all methods together (agar dilution, microdilution, E-test); conditions: agar dilution and microdilution in air, E-test in air and CO2, all strains
Description: as §2
as §3, with “These” for “Cultures were maintained at −70° C. in double-strength skim milk (Difco Laboratories, Detroit, Mich.). Gemifloxacin susceptibility powder, disks and E-tests (AB Biodisk, Solna, Sweden) were obtained from SmithKline Beecham Laboratories, Collegeville, Pa., USA. These”
as §4, with “Standard” for “Cultures were maintained at −70° C. in double-strength skim milk (Difco Laboratories, Detroit, Mich.). Gemifloxacin susceptibility powder, disks and E-tests (AB Biodisk, Solna, Sweden) were obtained from SmithKline Beecham Laboratories, Collegeville, Pa., USA. Standard”

[6] = agar dilution (air), all 200 strains
[7] = agar dilution, 39 ciprofloxacin-resistant strains (ciprofloxacin MIC ≧8.0 μg/ml)
[8] = agar dilution, 161 ciprofloxacin-susceptible strains (ciprofloxacin MIC ≦4.0 μg/ml)

MIC50 (pneumococci [1]; [6]): 0.03 µg/mL (≈ 0.077 µM)
MIC90 (pneumococci [1]; [6]): 0.25 µg/mL (≈ 0.642 µM)
MIC50 (pneumococci [1]; [7]): 0.25 µg/mL (≈ 0.642 µM)
MIC90 (pneumococci [1]; [7]): 0.5 µg/mL (≈ 1.28 µM)
MIC50 (pneumococci [1]; [8]): 0.03 µg/mL (≈ 0.077 µM)
MIC90 (pneumococci [1]; [8]): 0.03 µg/mL (≈ 0.077 µM)
MIC range (pneumococci [1]; [6]): 0.004 to 1.0 µg/mL
MIC range (pneumococci [1]; agar dilution (air), all 200 strains, listed as gemifloxacin): 0.004 to 1 µg/mL
MIC range (pneumococci [1]; [7]): 0.03 to 1 µg/mL
MIC range (pneumococci [1]; agar dilution, 39 ciprofloxacin-resistant strains (ciprofloxacin MIC ≧8.0 μg/ml), listed as gemifloxacin): 0.03 to 1.0 µg/mL
MIC range (pneumococci [1]; [8]): 0.004 to 0.06 µg/mL
MIC50 (pneumococci [2]; Streptococcus pneumoniae): 0.016 µg/mL (≈ 0.0411 µM)
MIC90 (pneumococci [2]; Streptococcus pneumoniae): 0.125 µg/mL (≈ 0.321 µM)
MIC range (pneumococci [2]): 0.004 to 0.5 µg/mL
MIC50 (pneumococci [3]; E-test (CO2)): 0.016 µg/mL (≈ 0.0411 µM)
MIC range (pneumococci [3]; E-test (CO2)): 0.008 to 0.5 µg/mL
MIC range (pneumococci [3]; E-test (CO2), listed as gemifloxacin): 0.00 to 0.5 µg/mL
MIC range (pneumococci [3]; E-test (air)): 0.008 to 0.5 µg/mL
MIC90 (pneumococci [3]; Streptococcus pneumoniae, E-test (CO2)): 0.25 µg/mL (≈ 0.642 µM)
MIC90 (pneumococci [3]; Streptococcus pneumoniae, E-test (air)): 0.125 µg/mL (≈ 0.321 µM)
MIC50 (pneumococci [3]; Streptococcus pneumoniae, E-test (air), read-out: MIC50): 0.016 µg/mL (≈ 0.0411 µM)
MIC50s, range over methods (pneumococci [5]): 0.016 to 0.03 µg/mL
MIC90s, range over methods (pneumococci [5]): 0.125 to 0.25 µg/mL
MIC range over all methods (pneumococci [5]): 0.004 to 1.0 µg/mL
Compound: CO/N=C1\CN(c2nc3c(cc2F)c(=O)c(C(=O)O)cn3C2CC2)CC1CN (racemic) [Gemifloxacin, (R,S)-7-(3-aminomethyl-4-methoxyiminopyrrolidin-1-yl)-1-cyclopropyl-6-fluoro-4-oxo-1,4-dihydro-1,8-naphthyridine-3-carboxylic acid]
zone of inhibition at 5 µg/disc (pneumococci [4]; in CO2, ciprofloxacin-resistant strains, full range): 18 to 31 mm
zone of inhibition at 5 µg/disc (pneumococci [4]; in CO2, ciprofloxacin-resistant strains, most strains): 21 to 26 mm
zone of inhibition at 5 µg/disc (pneumococci [4]; in air, quinolone-resistant strains, most strains): < 31 mm
zone of inhibition at 5 µg/disc (pneumococci [4]; incubated in CO2, all ciprofloxacin-susceptible strains): ≥ 26 mm
zone of inhibition at 5 µg/disc (pneumococci [4]; incubated in air, quinolone-susceptible strains): ≥ 28 mm
zone diameter (pneumococci [4]; most quinolone-susceptible strains): > 25 mm
zone diameter in air wider than in CO2 (pneumococci [4]; most strains, air versus CO2): 1-3 mm
